The source of these data is patent publication US20230000773A1, “NOVEL HEADGROUP LIPID COMPOUNDS AND COMPOSITIONS FOR INTRACELLULAR DELIVERY OF THERAPEUTIC AGENTS” (ModernaTX, Inc., priority 2019, published 2023).

Where a name gives a salt, the structure may show the parent alone.

Series [1] can be described thus: Surface hydrophobicity by Generalized Polarization by Laurdan (GPL). The format is physicochemical. Conditions: normalized Generalized Polarization by Laurdan; higher N-GP = less polar surface. The source says: Nanoparticle compositions including a therapeutic and/or prophylactic can be optimized according to the selection of a compound according to Formula (I), (I-1), (A), (A-1), (A-1a), or (A-1b), the selection of additional lipids, the amount of each lipid in the lipid component, and the wt:wt ratio of the lipid component to the therapeutic and/or prophylactic. Nanoparticle compositions including DSPC as a phospholipid, cholesterol as a structural lipid, PEG 2 as a PEG lipid, and a compound according to Formula (I), (I-1), (A), (A-1), (A-1a), or (A-1b) were prepared. The ratios of the lipids were 50:10:38:2 mol % for the lipid according to Formula (I), (I-1), (A), (A-1), (A-1a), or (A-1b):DSPC:cholesterol:PEG 2.
Laurdan, a fluorescent aminonaphthalene ketone lipid, was post-inserted into the nanoparticle surface and the fluorescence spectrum of Laurdan was collected to determine the normalized Generalized Polarization (N-GP). Higher N-GP indicates a less polar surface.

Series [2] in a line: Heparin-sepharose binding of nanoparticles.
Another series concerns hEPO mRNA. Description: hEPO expression in CD1-mice after intravenous administration of nanoparticles. The format is in vivo. Particulars: 6 h after intravenous administration, mRNA dose 0.5 mg/kg, N:P 3.4, compound:DSPC:cholesterol:PEG 2 50:10:38:2. Here is the method: The expression of hEPO mRNA in CD1-mice was measured 6 h after intravenous administration of nanoparticles comprising a compound of the disclosure, DSPC, cholesterol, and PEG 2 in a ratio of 50:10:38:2. […] Each composition was dosed to 8 animals at an mRNA dose of 0.5 mg/kg.

The nature of series [3]: Apparent LNP pKa by 2-(p-toluidino)-6-napthalene sulfonic acid (TNS) assay. The format is physicochemical. Conditions: pH at half of maximum fluorescence.

Turning to `CCCCCCCCC(CC)OC(=O)CCCCCCCN(CCCCCCCC(=O)OC(CCCCCCCC)CCCCCCCC)CCCN/C=C1\NC(=O)NC1=O` (mixture of isomers) [Compound 51/52, Heptadecan-9-yl (E/Z)-8-((3-(((2,5-dioxoimidazolidin-4-ylidene)methyl)amino)propyl)(8-oxo-8-(undecan-3-yloxy)octyl)amino)octanoate], in series [1], the “Average N-GP” value was found to be 0.921. Besides, the “Relative % Area Bound by LNP” value in series [2] turned out to be 2.25%. In the series with hEPO mRNA, the “Avg. [hEPO] mIU/mL” value is 1.86E+05 mIU/mL. In series [3], the “LogIC50 (pKa)” value stood at 6.48.
For the molecule `CCCCCCCCC(CC)OC(=O)CCCCCCCN(CCCCCCCC(=O)OC(CCCCCCCC)CCCCCCCC)CCCN/C(=N/O)c1nonc1N` (racemic) [Compound 55/56, Heptadecan-9-yl (E/Z)-8-((3-(4-amino-N′-hydroxy-1,2,5-oxadiazole-3-carboximidamido)propyl)(8-oxo-8-(undecan-3-yloxy)octyl)amino)octanoate], the “Relative % Area Bound by LNP” value in series [2] was 0%. Besides, the “Avg. [hEPO] mIU/mL” value in the series on hEPO mRNA is 1.37E+05 mIU/mL. Further, the “LogIC50 (pKa)” value in series [3] amounted to 5.61.
As to `CCCCCCCCC(CC)OC(=O)CCCCCCCN(CCCCCCCC(=O)OC(CCCCCCCC)CCCCCCCC)CCCNc1nnc(N)[nH]1` (stereo not shown) [Compound 11, Heptadecan-9-yl 8-((3-((5-amino-4H-1,2,4-triazol-3-yl)amino)propyl)(8-oxo-8-(undecan-3-yloxy)octyl)amino)octanoate], in the series on hEPO mRNA, the “Avg. [hEPO] mIU/mL” value worked out at 1.69E+04 mIU/mL. In addition, the “LogIC50 (pKa)” value in series [3] came out at 6.88.
Regarding `CCCCCCCCC(CC)OC(=O)CCCCCCCN(CCCCCCCC(=O)OC(CCCCCCCC)CCCCCCCC)CCCNC(C(=O)NC)C(=O)NC` (stereo not shown) [Compound 16, Heptadecan-9-yl 8-((3-((1,3-bis(methylamino)-1,3-dioxopropan-2-yl)amino)propyl)(8-oxo-8-(undecan-3-yloxy)octyl)amino)octanoate Trifluoroacetate Salt], the “Average N-GP” value in series [1] is 0.595. Further, the “Relative % Area Bound by LNP” value in series [2] turned out to be 57.65%. Besides, in the series on hEPO mRNA, the “Avg. [hEPO] mIU/mL” value stood at 1.72E+05 mIU/mL. In addition, the “LogIC50 (pKa)” value in series [3] is reported as 7.01.
The matching figures for `CCCCCCCCC(CC)OC(=O)CCCCCCCN(CCCCCCCC(=O)OC(CCCCCCCC)CCCCCCCC)CCCNc1nccnc1NC` (stereo not shown) [Compound 25, Heptadecan-9-yl 8-((3-((3-(methylamino)pyrazin-2-yl)amino)propyl)(8-oxo-8-(undecan-3-yloxy)octyl)amino)octanoate, trifluoroacetate Salt]: 0.869, 0%, 4.29E+05 mIU/mL and 7.46.
The matching figures for `CCCCCCCCC(CC)OC(=O)CCCCCCCN(CCCCCCCC(=O)OC(CCCCCCCC)CCCCCCCC)CCCNS(=O)(=O)c1ncccn1` (stereo not shown) [Compound 73, Heptadecan-9-yl 8-((8-oxo-8-(undecan-3-yloxy)octyl)(3-(pyrimidine-2-sulfonamido)propyl)amino)octanoate]: 0.747, 0%, 4.64E+05 mIU/mL and 6.61.
The matching figures for `CCCCCCCCC(CC)OC(=O)CCCCCCCN(CCCCCCCC(=O)OC(CCCCCCCC)CCCCCCCC)CCCNS(=O)(=O)Cc1ccccc1` (stereo not shown) [Compound 74, Heptadecan-9-yl 8-((8-oxo-8-(undecan-3-yloxy)octyl)(3-((phenylmethyl)sulfonamido)propyl)amino)octanoate]: 0.938, 6.14%, 1.21E+05 mIU/mL and 6.42.
For the molecule `CCCCCCCCC(CC)OC(=O)CCCCCCCN(CCCCCCCC(=O)OC(CCCCCCCC)CCCCCCCC)CCCN/C=N/S(C)(=O)=O` (stereo not shown) [Compound 86, Heptadecan-9-yl (E)-8-((3-(N′-(methylsulfonyl)formimidamido)propyl)(8-oxo-8-(undecan-3-yloxy)octyl)amino)octanoate], the “Average N-GP” value in series [1] is recorded as 0.737. In addition, the “Relative % Area Bound by LNP” value in series [2] came out at 0%. Moreover, in series [3], the “LogIC50 (pKa)” value was 6.59.
